The experiment has as its system CD2F1 mice, L1210 leukemia ip, survival T/C. As to the kind of experiment: NCI In Vivo Anticancer Drug Screen. Data for tumor model L1210 Leukemia (intraperitoneal) in CD2F1 (CDF1) mice. Conditions: higher = longer survival. Summed up:
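Mice carrying a transplanted tumor received test compound or vehicle alone. The value is the measurement in the treated group divided by that in the vehicle-treated control group.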

[1] abbreviates: endpoint: mean survival time, dose: 100.0 mg/kg/injection, schedule: Q01DX001 (ip), vehicle: saline with Tween-80.
[2] abbreviates: endpoint: mean survival time, dose: 100.0 mg/kg/injection, schedule: Q01DX009 (ip), vehicle: saline with Tween-80.
[3] abbreviates: endpoint: mean survival time, dose: 200.0 mg/kg/injection, schedule: Q01DX009 (ip), vehicle: saline with Tween-80.
Setting [4] is: endpoint: mean survival time, dose: 400.0 mg/kg/injection, schedule: Q01DX009 (ip), vehicle: saline with Tween-80.
Setting [5] is: endpoint: mean survival time, dose: 100.0 mg/kg/injection, schedule: Q04DX003 (ip), vehicle: saline.
Setting [6] is: endpoint: mean survival time, dose: 200.0 mg/kg/injection, schedule: Q04DX003 (ip), vehicle: saline.

Toxic doses and inconclusive results are not listed.

As to `CS(=O)(=O)OCCCCOS(C)(=O)=O`, the T/C by setting is: (endpoint: mean survival time, dose: 3.75 mg/kg/injection, schedule: Q01DX009 (ip), vehicle: saline with Tween-80) 92 % of control; (endpoint: mean survival time, dose: 3.75 mg/kg/injection, schedule: Q03HX008 (ip), vehicle: saline with Tween-80) 96 % of control; (endpoint: mean survival time, dose: 3.75 mg/kg/injection, schedule: Q03HX016 (ip), vehicle: saline with Tween-80) 94 % of control; (endpoint: mean survival time, dose: 3.75 mg/kg/injection, schedule: Q03HX024 (ip), vehicle: saline with Tween-80) 104 % of control; (endpoint: mean survival time, dose: 7.5 mg/kg/injection, schedule: Q01DX009 (ip), vehicle: saline with Tween-80) 102 % of control; (endpoint: mean survival time, dose: 7.5 mg/kg/injection, schedule: Q03HX008 (ip), vehicle: saline with Tween-80) 100 % of control. In addition, the T/C is, setting by setting: (endpoint: mean survival time, dose: 7.5 mg/kg/injection, schedule: Q03HX016 (ip), vehicle: saline with Tween-80) 98 % of control; (endpoint: mean survival time, dose: 7.5 mg/kg/injection, schedule: Q03HX024 (ip), vehicle: saline with Tween-80) 106 % of control; (endpoint: mean survival time, dose: 12.5 mg/kg/injection, schedule: Q01DX001 (ip), vehicle: saline) 98 % of control; (endpoint: mean survival time, dose: 15.0 mg/kg/injection, schedule: Q01DX009 (ip), vehicle: saline with Tween-80) 97 % of control; (endpoint: mean survival time, dose: 15.0 mg/kg/injection, schedule: Q01DX009 (oral), vehicle: saline with Tween-80) 97 % of control; (endpoint: mean survival time, dose: 15.0 mg/kg/injection, schedule: Q03HX008 (ip), vehicle: saline with Tween-80) 102 % of control. The T/C runs as follows: (endpoint: mean survival time, dose: 15.0 mg/kg/injection, schedule: Q03HX016 (ip), vehicle: saline with Tween-80) 98 % of control; (endpoint: mean survival time, dose: 15.0 mg/kg/injection, schedule: Q03HX024 (ip), vehicle: saline with Tween-80) 103 % of control; (endpoint: mean survival time, dose: 25.0 mg/kg/injection, schedule: Q01DX001 (ip), vehicle: saline) 102 % of control; (endpoint: mean survival time, dose: 30.0 mg/kg/injection, schedule: Q01DX001 (ip), vehicle: saline with Tween-80) 98 % of control; (endpoint: mean survival time, dose: 30.0 mg/kg/injection, schedule: Q01DX009 (ip), vehicle: saline with Tween-80) 100 % of control; (endpoint: mean survival time, dose: 30.0 mg/kg/injection, schedule: Q01DX009 (oral), vehicle: saline with Tween-80) 94 % of control. Moreover, the T/C reads like this: (endpoint: mean survival time, dose: 30.0 mg/kg/injection, schedule: Q03HX008 (ip), vehicle: saline with Tween-80) 107 % of control; (endpoint: mean survival time, dose: 30.0 mg/kg/injection, schedule: Q03HX016 (ip), vehicle: saline with Tween-80) 98 % of control; (endpoint: mean survival time, dose: 30.0 mg/kg/injection, schedule: Q03HX024 (ip), vehicle: saline with Tween-80) 107 % of control; (endpoint: mean survival time, dose: 30.0 mg/kg/injection, schedule: Q04DX003 (ip), vehicle: saline with Tween-80) 101 % of control; (endpoint: mean survival time, dose: 30.0 mg/kg/injection, schedule: Q08DX002 (ip), vehicle: saline with Tween-80) 98 % of control; (endpoint: mean survival time, dose: 50.0 mg/kg/injection, schedule: Q01DX001 (ip), vehicle: saline) 101 % of control. For the same molecule, the T/C reads like this: (endpoint: mean survival time, dose: 60.0 mg/kg/injection, schedule: Q01DX001 (ip), vehicle: saline with Tween-80) 104 % of control; (endpoint: mean survival time, dose: 60.0 mg/kg/injection, schedule: Q01DX001 (oral), vehicle: saline with Tween-80) 100 % of control; (endpoint: mean survival time, dose: 60.0 mg/kg/injection, schedule: Q04DX003 (ip), vehicle: saline with Tween-80) 96 % of control; (endpoint: mean survival time, dose: 60.0 mg/kg/injection, schedule: Q08DX002 (ip), vehicle: saline with Tween-80) 98 % of control; (endpoint: mean survival time, dose: 100.0 mg/kg/injection, schedule: Q01DX001 (ip), vehicle: saline) 112 % of control; (endpoint: mean survival time, dose: 120.0 mg/kg/injection, schedule: Q01DX001 (ip), vehicle: saline with Tween-80) 104 % of control. The T/C was 97 % of control (endpoint: mean survival time, dose: 120.0 mg/kg/injection, schedule: Q08DX002 (ip), vehicle: saline with Tween-80) and 100 % of control (endpoint: mean survival time, dose: 240.0 mg/kg/injection, schedule: Q08DX002 (ip), vehicle: saline with Tween-80).
Regarding `CCCc1ccc(Nc2c3ccccc3nc3ccccc23)cc1`, the T/C runs as follows: (endpoint: mean survival time, dose: 100.0 mg/kg/injection, schedule: Q04DX002 (ip), vehicle: saline with Tween-80) 107 % of control; (endpoint: mean survival time, dose: 200.0 mg/kg/injection, schedule: Q04DX002 (ip), vehicle: saline with Tween-80) 114 % of control; (endpoint: mean survival time, dose: 400.0 mg/kg/injection, schedule: Q04DX002 (ip), vehicle: saline with Tween-80) 105 % of control.
Take `COc1ccc(OC)c(C2(O)C=C(Cl)C(=O)C=C2Cl)c1` (stereo not drawn): the T/C is, setting by setting: under setting [1], 101 % of control; (endpoint: mean survival time, dose: 200.0 mg/kg/injection, schedule: Q01DX001 (ip), vehicle: saline with Tween-80) 97 % of control.
As for `CN[C@H]1CCc2cc(OC)c(OC)c(OC)c2-c2ccc(SC)c(=O)cc21`, the T/C by setting is: (endpoint: mean survival time, dose: 12.5 mg/kg/injection, schedule: Q01DX001 (ip), vehicle: Klucel (hydroxypropylcellulose) (HPC)) 104 % of control; (endpoint: mean survival time, dose: 25.0 mg/kg/injection, schedule: Q01DX001 (ip), vehicle: Klucel (hydroxypropylcellulose) (HPC)) 106 % of control; (endpoint: mean survival time, dose: 50.0 mg/kg/injection, schedule: Q01DX001 (ip), vehicle: Klucel (hydroxypropylcellulose) (HPC)) 102 % of control.
In the case of `COc1cccc2c1CCC1=C2CC=C2CC3(CCC21C)OCCO3` (stereo not drawn), the T/C is 91 % of control (endpoint: mean survival time, dose: 100.0 mg/kg/injection, schedule: Q04DX003 (sc), vehicle: steriod suspending solution); 96 % of control (endpoint: mean survival time, dose: 200.0 mg/kg/injection, schedule: Q04DX003 (sc), vehicle: steriod suspending solution); 97 % of control (endpoint: mean survival time, dose: 400.0 mg/kg/injection, schedule: Q04DX003 (sc), vehicle: steriod suspending solution).
As to `COC(=O)CCC(=O)N1C=Cc2ccccc2C1C#N` (stereo not drawn), the T/C is, setting by setting: under setting [2], 98 % of control; (endpoint: mean survival time, dose: 100.0 mg/kg/injection, schedule: Q04DX003 (ip), vehicle: saline with Tween-80) 95 % of control; under setting [3], 102 % of control; (endpoint: mean survival time, dose: 200.0 mg/kg/injection, schedule: Q04DX003 (ip), vehicle: saline with Tween-80) 95 % of control; under setting [4], 102 % of control; (endpoint: mean survival time, dose: 400.0 mg/kg/injection, schedule: Q04DX003 (ip), vehicle: saline with Tween-80) 90 % of control.
With `Cc1cc2nc(CN)[nH]c2cc1C`, the T/C is, setting by setting: under setting [5], 98 % of control; under setting [6], 95 % of control.
As to `CCC(C)C(=O)CN(C)c1ccccc1` (stereo not drawn), the T/C by setting is: under setting [5], 102 % of control; under setting [6], 102 % of control; (endpoint: mean survival time, dose: 400.0 mg/kg/injection, schedule: Q04DX003 (ip), vehicle: saline) 100 % of control.
Take `O=c1nc(N2CCCCCCC2)ccn1C1OC(CO)C(O)C1O` (stereo not drawn): the T/C (endpoint: median survival time, dose: 12.5 mg/kg/injection, schedule: Q01DX005 (ip), vehicle: water) is 98 % of control; the T/C (endpoint: median survival time, dose: 25.0 mg/kg/injection, schedule: Q01DX005 (ip), vehicle: water) was 98 % of control; the T/C (endpoint: median survival time, dose: 50.0 mg/kg/injection, schedule: Q01DX005 (ip), vehicle: water) is 118 % of control; the T/C (endpoint: median survival time, dose: 100.0 mg/kg/injection, schedule: Q01DX005 (ip), vehicle: water) was 112 % of control; the T/C (endpoint: median survival time, dose: 200.0 mg/kg/injection, schedule: Q01DX005 (ip), vehicle: water) is 104 % of control.
For `CC(C)(C)OOC(=O)Nc1ccc(Cl)cc1`, the T/C is 88 % of control (endpoint: mean survival time, dose: 25.0 mg/kg/injection, schedule: Q01DX001 (ip), vehicle: saline with Tween-80); 92 % of control (endpoint: mean survival time, dose: 50.0 mg/kg/injection, schedule: Q01DX001 (ip), vehicle: saline with Tween-80); 88 % of control under setting [1].
`CC[C@@]1(O)C(=O)OCc2c1cc1n(c2=O)Cc2cc3ccccc3nc2-1`: the T/C reads like this: (endpoint: mean survival time, dose: 0.78 mg/kg/injection, schedule: Q04DX003 (ip), vehicle: water) 120 % of control; (endpoint: mean survival time, dose: 1.56 mg/kg/injection, schedule: Q04DX003 (ip), vehicle: water) 156 % of control; (endpoint: mean survival time, dose: 3.13 mg/kg/injection, schedule: Q04DX003 (ip), vehicle: other) 159 % of control; (endpoint: mean survival time, dose: 3.13 mg/kg/injection, schedule: Q04DX003 (ip), vehicle: water) 156 % of control; (endpoint: mean survival time, dose: 6.25 mg/kg/injection, schedule: Q04DX003 (ip), vehicle: other) 124 % of control; (endpoint: mean survival time, dose: 12.5 mg/kg/injection, schedule: Q04DX003 (ip), vehicle: water) 95 % of control. Further, the T/C (endpoint: mean survival time, dose: 25.0 mg/kg/injection, schedule: Q04DX003 (ip), vehicle: other) was 119 % of control.
For `CC(C)(C)OC(=O)NC(CCCCNC(=O)C(F)(F)F)C(=O)O` (stereo not drawn), the T/C by setting is: under setting [2], 102 % of control; under setting [3], 93 % of control; under setting [4], 87 % of control.
`CN(C)C(=C1C=CC=C1)N(C)C`: where the note is “endpoint: mean survival time, dose: 75.0 mg/kg/injection, schedule: Q01DX001 (ip), vehicle: saline”, the T/C is 95 % of control.

These data come from PubChem BioAssay AID256 (DTP/NCI, 2004).
